For one assay, the target named is MC5-R (Homo sapiens, UniProt P33032). Put plainly: MC5-R binding.
Assay [1] relates to human sebocytes. The assay can be described thus: Nile red evaluation of lipid accumulation in sebocytes. The following applies: for inhibition at 0.4 µM: read-out: % Inh 0.4 μM (lipid accumulation, Nile red); for inhibition at 0.8 µM: read-out: % Inh 0.8 μM (lipid accumulation, Nile red). In kind it is cell-based. How it is done: The cells were incubated at 37° C. for 24 hours prior to their use as a feeder layer for sebocytes. Human sebocytes were isolated from Dermatome shavings of postoperative pieces of human skin at 0.4-0.8 mm depths (this part of the skin was previously shown to be enriched in sebaceous glands). […] This medium was changed every 3 days (Phase III). Hormones, mixture of hormones i.e. bovine pituitary extract or compounds to be tested were added to the culture at the beginning of phase III. […] The evaluation of lipid accumulation completed using the Nile red method. This method relies on visualization of neutral lipids by Nile red and quantitation by reading of fluorescence at 535 nm excitation, 580 nm emission using a plate reader. The lipid synthesis was evaluated by radioactive labeling using ^14C acetate and quantified by Bio Rad Phosphoimager (Molecular Imager, FX) using 4.1 Software. […] Quantitation of accumulation/inhibition of neutral lipids in sebocytes was accomplished by Nile red binding assay. Briefly, following exposure of sebocytes to test compounds, the cells were allowed to interact with 1 μM Nile red in Hanks buffered saline solution containing DMSO and Pluronic F127. After 4 hours of incubation, washing and incubation overnight, the fluorescence was read at 535 excitation and 580 emission using a fluorescence plate reader. […] Following the procedure described above, select compounds of the present invention were tested for visual and Nile red evaluation of lipid accumulation, with results as listed in Table 9.

Assay [2] relates to human sebocytes. Put plainly: Visual observation of lipid granule formation in sebocytes. In kind it is cell-based. As for the experimental part:
Semiconfluent cultures of 3T3 mouse fibroblasts (Swiss Albino mouse, ATCC CCL-92) were treated with mitomycin C (4 μg/ml) for 3 hours, trypsinized and seeded at a density of 2.5×10^5/9.5 cm^2 tissue culture plate in Dulbeccos Minimal Essential Medium (DMEM) containing 10% Colorado Calf Serum, PNC (100U/ml), STM (100 μg/ml), L glutamine (0.3 mg/ml), sodium pyruvate (1 mM) and nonessential amino acids (100 μM). The cells were incubated at 37° C. for 24 hours prior to their use as a feeder layer for sebocytes.
Human sebocytes were isolated from Dermatome shavings of postoperative pieces of human skin at 0.4–0.8 mm depths (this part of the skin was previously shown to be enriched in sebaceous glands). Shavings so obtained were treated with 1% Dispase in Iscoves medium containing 10% serum for 20 min at 37° C. The tissue was then placed in 0.3% trypsin/1% EDTA in Phosphate Buffered Saline (PBS) for 10 minutes at 37° C. Following this incubation the cells were gently scraped from the tissue in Growth medium (GM) containing DMEM/F12 media mixture (3:1), supplemented with 8% heat inactivated FBS, 2% heat inactivated human serum (HS), 1 mM sodium pyruvate, epidermal growth factor (10 ng/ml), insulin (10 μg/ml), hydrocortisone (0.4 μg/ml) and +/−cholera toxin (100 μg/ml), L-glutamine and antibiotics. Cells so obtained were filtered through nylon mesh ([…]), centrifuged at 750 RPM, re-suspended in GM and counted.
Resultant cells from the above isolation procedure were plated on the 3T3 feeder layers at 2×10^5/9.5 cm^2 in growth medium and maintained at 37° C. and 5% CO2 for 3 days (Phase I). Following the initial growth period they were transferred to a transition medium (TM) that consisted of DMEM/F12 media supplemented with 1 mM sodium pyruvate, insulin ([…]), transferrin ([…]) and selenium (5.5 μg/ml) (ITS), 2% heat inactivated FBS and 2% heat inactivated human serum as well as +/−cholera toxin (ch.t.) (100 μg/ml), L-glutamine and antibiotics (Phase II). Three days later the cells were changed to differentiation medium (DM), DMEM/F12 supplemented with ITS, 3,3′,5-triido-L-thyronine sodium (3 nM), 1%(v/v) trace element mix and the choice of differentiation agent i.e. bovine pituitary extract (10 μg/ml). This medium was changed every 3 days (Phase III).
Hormones, mixture of hormones i.e. bovine pituitary extract or compounds to be tested were added to the culture at the beginning of phase III. Two criteria were used to evaluate the effect of these materials on sebaceous cultures: 1) visual observations and 2) evaluation of sebaceous lipid accumulation and synthesis. The evaluation of lipid accumulation completed using the Nile red method. This method relies on visualization of neutral lipids by Nile red and quantitation by reading of fluorescence at 535 nm excitation, 580 nm emission using a plate reader. The lipid synthesis was evaluated by radioactive labeling using ^14C acetate and quantified by Bio Rad Phosphoimager (Molecular Imager, FX) using 4.1 Software.
Quantitation of accumulation/inhibition of neutral lipids in sebocytes was accomplished by Nile red binding assay. Briefly, following exposure of sebocytes to test compounds, the cells were allowed to interact with 1 μM Nile red in Hanks buffered saline solution containing DMSO and Pluronic F127. After 4 hours of incubation, washing and incubation overnight, the fluorescence was read at 535 excitation and 580 emission using a fluorescence plate reader.
Following the procedure described above, select compounds of the present invention were tested for visual and Nile red evaluation of lipid accumulation, with results as listed in Table 9.
Following the procedure described above, select compounds of the present invention were tested for their inhibitory effect on differentiation of human sebocytes. […]

Assay [3] has as its target T1, melanocortin MC-4 receptor (Homo sapiens, UniProt P32245).
T1 construct: purchased Receptor Biology Inc
The assay can be described thus: Melanocortin MC-4 Receptor Binding Assay (SPA). The procedure, abridged: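 Membranes bound to WGA SPA beads were incubated 16 h at 25° C with 40 pM ¹²⁵I-NDP-MSH and test compound (1 mM stock in 30% DMSO-HEPES pH 7.4). Nonspecific binding set with 1 μM NDP-MSH or α-MSH; percent inhibition from bound cpm.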

MC5-R, sequence (P33032 whole entry): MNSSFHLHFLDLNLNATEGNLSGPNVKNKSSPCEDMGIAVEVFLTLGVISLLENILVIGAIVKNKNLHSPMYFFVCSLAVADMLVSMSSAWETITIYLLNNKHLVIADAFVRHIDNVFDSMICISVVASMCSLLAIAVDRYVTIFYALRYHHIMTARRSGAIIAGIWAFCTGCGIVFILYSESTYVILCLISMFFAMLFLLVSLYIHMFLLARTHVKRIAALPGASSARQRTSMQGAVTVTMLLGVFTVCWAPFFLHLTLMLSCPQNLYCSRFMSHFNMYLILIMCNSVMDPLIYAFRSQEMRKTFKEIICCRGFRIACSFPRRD
T1 sequence (P32245 whole entry): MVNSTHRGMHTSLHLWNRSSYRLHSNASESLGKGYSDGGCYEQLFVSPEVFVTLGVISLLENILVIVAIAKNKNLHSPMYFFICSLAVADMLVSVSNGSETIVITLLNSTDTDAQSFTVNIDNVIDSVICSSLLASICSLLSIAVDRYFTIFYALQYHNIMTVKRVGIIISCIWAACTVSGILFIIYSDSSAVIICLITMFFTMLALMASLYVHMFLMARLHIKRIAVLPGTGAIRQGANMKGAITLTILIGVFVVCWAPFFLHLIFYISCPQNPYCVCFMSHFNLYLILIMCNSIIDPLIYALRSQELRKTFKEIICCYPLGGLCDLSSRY

In the case of `c1ccc(CNc2nc(-c3ccccc3)[n+](-c3ccccc3)s2)cc1` [Compound 84], the “MC5-R IC50” value at MC5-R was “No binding”. In the assay with human sebocytes [1], the inhibition at 0.4 µM was 0% and the inhibition at 0.8 µM was found to be 0%. Moreover, in the assay with human sebocytes [2], the “Visual* 0.4 μM (inhibition of lipid granule formation)” value came to 0 and the “Visual* 0.8 μM (inhibition of lipid granule formation)” value is 0.
As a reminder, the IC50 is the midpoint of a concentration-inhibition curve. On MC5-R, `COc1ccccc1-c1nc(Nc2ccccc2)s[n+]1-c1ccccc1OC.[Br-]` [Compound 74, 2-(2-methoxyphenyl)-3-(2-methoxyphenyl)-5-phenylamino-[1,2.4]thiadiazol-2-ium] displayed an IC50 of 154 nM. The molecule also had an IC50 in assay [3] of 194 nM. Besides, in the assay with human sebocytes [1], the inhibition at 0.4 µM came out at 72% and the inhibition at 0.8 µM stood at 100%. Moreover, in the assay with human sebocytes [2], the “Visual* 0.4 μM (inhibition of lipid granule formation)” value is on record as “+++ (+++ = 75%)” and the “Visual* 0.8 μM (inhibition of lipid granule formation)” value was “++++ (++++ = 100%)”. Moreover, in the assay with human sebocytes [2] (seven day treatment), the “lipid granules in sebocyte cultures (visual, stained cultures)” value is recorded as “complete disappearance of lipid granules”.
Turning to `COc1ccccc1-[n+]1sc(Nc2ccc(C)cc2)nc1-c1ccccc1.[Br-]` [Compound 31, 2-(2-methoxyphenyl)-3-phenyl-5-p-tolylamino-[1,2,4]thiadiazol-2-ium], the IC50 in assay [3] was determined as 22 nM.
Take `COc1ccc(N(C)c2nc(-c3ccccc3)[n+](-c3ccc(C)cc3)s2)cc1` [Compound 50]: the “MC5-R IC50” value at MC5-R was “No binding”. The IC50 in assay [3] was 30000 nM. Further, in the assay on human sebocytes [1], the inhibition at 0.4 µM was 0% and the inhibition at 0.8 µM was 0%. Besides, in the assay on human sebocytes [2], the “Visual* 0.4 μM (inhibition of lipid granule formation)” value turned out to be 0 and the “Visual* 0.8 μM (inhibition of lipid granule formation)” value is recorded as 0.

These data come from US7049331B2, “1,2,4-thiadiazole derivatives as melanocortin receptor modulators” (Ortho-McNeil Pharmaceutical, Inc., priority 2001, dated 2006).
